pIC50: −log10 of the molar value.
Assays:
[1] = target: T1, CYP3A4 (Homo sapiens, UniProt P08684); assay: CYP inhibition screening, recombinant enzyme (fluorescent-based) assay; type: in vitro ADME
T1 construct: purchased Gentest, BD Biosciences

[2] = target: T2, CYP2C19 (Homo sapiens, UniProt P33261); assay: as above; type: in vitro ADME; conditions: for Inhibition of CYP2C19 activity (in words): human, human cDNA-expressed (recombinant) CYP2C19, 30 min
T2 construct: purchased Gentest, BD Biosciences
T2 sequence (P33261 whole entry): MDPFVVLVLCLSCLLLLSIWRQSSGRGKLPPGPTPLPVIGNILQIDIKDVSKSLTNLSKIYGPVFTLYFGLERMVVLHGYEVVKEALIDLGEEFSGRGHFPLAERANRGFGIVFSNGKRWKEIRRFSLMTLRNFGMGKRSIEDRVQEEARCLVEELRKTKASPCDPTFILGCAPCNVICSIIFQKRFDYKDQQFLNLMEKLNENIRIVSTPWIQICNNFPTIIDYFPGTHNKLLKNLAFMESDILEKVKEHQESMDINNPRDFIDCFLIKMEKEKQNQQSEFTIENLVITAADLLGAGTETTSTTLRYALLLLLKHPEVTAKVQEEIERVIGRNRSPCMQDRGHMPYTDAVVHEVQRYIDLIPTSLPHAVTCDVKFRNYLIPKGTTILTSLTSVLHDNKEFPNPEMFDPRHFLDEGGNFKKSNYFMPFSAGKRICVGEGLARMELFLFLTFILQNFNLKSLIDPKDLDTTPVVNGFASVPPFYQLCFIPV

[3] = target: T3, ER-α (Rattus norvegicus, UniProt P06211); assay: Transient transfection luciferase transactivation assay in HEK-293 cells; type: cell-based; conditions: for ER-α transactivation, agonist mode (in words): up to the highest tested concentration (1 μM); for Inhibition of estradiol-induced ER-α activity, antagonist mode (in words): with 1 nM estradiol
T3 construct: expressed in transfected cells; host or cells: HEK-293
T3 sequence (P06211 1-600): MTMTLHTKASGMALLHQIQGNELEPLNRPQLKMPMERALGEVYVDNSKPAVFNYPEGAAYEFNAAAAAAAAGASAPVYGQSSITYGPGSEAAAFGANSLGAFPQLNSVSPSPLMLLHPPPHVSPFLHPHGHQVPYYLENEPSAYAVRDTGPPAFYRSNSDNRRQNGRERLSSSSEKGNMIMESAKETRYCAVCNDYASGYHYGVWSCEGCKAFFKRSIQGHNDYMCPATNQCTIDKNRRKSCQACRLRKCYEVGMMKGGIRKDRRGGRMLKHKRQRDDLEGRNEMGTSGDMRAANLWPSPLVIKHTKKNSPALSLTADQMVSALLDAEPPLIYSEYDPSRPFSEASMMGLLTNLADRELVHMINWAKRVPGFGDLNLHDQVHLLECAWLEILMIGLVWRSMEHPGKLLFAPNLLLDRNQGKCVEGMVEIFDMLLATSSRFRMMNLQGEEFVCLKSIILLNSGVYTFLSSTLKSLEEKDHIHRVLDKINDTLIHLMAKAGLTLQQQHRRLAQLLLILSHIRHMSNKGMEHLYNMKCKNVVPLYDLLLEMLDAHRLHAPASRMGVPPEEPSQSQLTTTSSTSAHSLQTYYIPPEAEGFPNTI

[4] = target: T4, ER-β (Rattus norvegicus, UniProt Q62986); assay: as above; type: cell-based; conditions: for ER-β transactivation, agonist mode (in words): up to the highest tested concentration (1 μM); for Inhibition of estradiol-induced ER-β activity, antagonist mode (in words): with 1 nM estradiol
T4 construct: expressed in transfected cells; host or cells: HEK-293
T4 sequence (Q62986 whole entry): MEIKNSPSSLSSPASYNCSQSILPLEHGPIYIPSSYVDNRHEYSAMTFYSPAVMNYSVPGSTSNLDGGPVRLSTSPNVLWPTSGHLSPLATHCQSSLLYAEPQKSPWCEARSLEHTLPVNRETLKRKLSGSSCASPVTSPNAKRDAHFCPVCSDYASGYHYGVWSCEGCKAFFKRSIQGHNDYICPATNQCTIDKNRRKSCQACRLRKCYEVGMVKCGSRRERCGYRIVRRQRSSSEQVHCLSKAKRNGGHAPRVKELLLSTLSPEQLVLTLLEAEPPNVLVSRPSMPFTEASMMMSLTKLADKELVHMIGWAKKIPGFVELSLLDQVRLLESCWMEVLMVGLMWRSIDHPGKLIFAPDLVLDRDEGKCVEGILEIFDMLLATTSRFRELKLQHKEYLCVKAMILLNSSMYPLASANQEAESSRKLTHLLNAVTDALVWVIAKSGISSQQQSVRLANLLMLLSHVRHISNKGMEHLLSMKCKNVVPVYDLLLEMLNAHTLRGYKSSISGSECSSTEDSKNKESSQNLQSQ

[5] = target: T5, GR (Rattus norvegicus, UniProt P06536); assay: as above; type: cell-based; conditions: for GR-mediated transactivation, agonist mode (in words): all tested concentrations; for Inhibition of dexamethasone-induced GR-mediated transactivation, antagonist mode (in words): with 1 nM dexamethasone
T5 construct: expressed in transfected cells; host or cells: HEK-293
T5 sequence (P06536 1-795): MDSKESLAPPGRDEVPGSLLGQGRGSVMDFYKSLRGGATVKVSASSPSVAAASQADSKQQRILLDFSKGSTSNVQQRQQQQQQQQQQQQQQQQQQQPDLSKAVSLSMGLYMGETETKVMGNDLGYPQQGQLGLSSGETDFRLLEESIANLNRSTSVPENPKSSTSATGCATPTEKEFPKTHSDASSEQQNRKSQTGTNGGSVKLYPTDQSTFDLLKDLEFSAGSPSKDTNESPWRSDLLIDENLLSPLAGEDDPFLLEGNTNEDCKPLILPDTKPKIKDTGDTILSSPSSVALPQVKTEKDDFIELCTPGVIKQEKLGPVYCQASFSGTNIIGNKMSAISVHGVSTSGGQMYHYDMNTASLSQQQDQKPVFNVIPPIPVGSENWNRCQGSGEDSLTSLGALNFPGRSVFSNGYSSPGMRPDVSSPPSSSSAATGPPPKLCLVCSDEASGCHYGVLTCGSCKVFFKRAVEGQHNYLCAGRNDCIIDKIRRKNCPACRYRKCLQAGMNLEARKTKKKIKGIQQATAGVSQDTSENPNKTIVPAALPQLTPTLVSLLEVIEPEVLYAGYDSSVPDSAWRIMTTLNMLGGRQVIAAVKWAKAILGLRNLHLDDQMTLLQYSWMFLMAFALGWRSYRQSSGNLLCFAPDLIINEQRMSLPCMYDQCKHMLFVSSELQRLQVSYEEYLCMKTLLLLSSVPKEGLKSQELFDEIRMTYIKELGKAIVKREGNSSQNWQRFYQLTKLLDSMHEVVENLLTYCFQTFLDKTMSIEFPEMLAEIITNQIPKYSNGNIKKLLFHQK

[6] = target: T6, MR (Rattus norvegicus, UniProt P22199); assay: as above; type: cell-based; conditions: for MR-mediated transactivation, agonist mode (in words): all tested concentrations; for Inhibition of aldosterone-induced MR-mediated transactivation, antagonist mode (in words): with 1 nM aldosterone
T6 construct: expressed in transfected cells; host or cells: HEK-293
T6 sequence (P22199 1-981): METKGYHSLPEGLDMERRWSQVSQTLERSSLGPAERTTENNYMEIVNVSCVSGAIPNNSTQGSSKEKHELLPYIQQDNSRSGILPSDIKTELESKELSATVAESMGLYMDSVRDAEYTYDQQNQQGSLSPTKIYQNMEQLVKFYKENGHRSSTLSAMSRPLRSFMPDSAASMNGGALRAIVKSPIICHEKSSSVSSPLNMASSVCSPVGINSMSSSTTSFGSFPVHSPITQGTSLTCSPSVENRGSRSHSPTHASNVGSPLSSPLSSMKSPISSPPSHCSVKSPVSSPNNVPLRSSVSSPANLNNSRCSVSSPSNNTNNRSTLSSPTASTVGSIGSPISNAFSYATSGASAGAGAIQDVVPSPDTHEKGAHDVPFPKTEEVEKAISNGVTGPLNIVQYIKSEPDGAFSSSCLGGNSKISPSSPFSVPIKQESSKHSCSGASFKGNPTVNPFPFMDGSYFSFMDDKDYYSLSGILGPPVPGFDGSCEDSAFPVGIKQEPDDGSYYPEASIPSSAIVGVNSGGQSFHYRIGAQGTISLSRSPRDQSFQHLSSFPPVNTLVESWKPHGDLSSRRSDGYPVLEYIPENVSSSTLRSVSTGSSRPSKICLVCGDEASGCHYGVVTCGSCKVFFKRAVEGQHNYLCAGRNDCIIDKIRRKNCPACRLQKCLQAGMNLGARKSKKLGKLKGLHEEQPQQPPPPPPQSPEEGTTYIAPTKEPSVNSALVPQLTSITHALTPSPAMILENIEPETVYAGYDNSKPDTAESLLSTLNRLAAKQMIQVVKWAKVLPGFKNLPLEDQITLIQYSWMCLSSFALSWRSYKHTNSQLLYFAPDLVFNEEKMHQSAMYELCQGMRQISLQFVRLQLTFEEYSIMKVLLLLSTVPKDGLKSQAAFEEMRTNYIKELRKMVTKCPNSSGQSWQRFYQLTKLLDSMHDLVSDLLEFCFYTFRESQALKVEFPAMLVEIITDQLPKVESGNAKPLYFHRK

T1 sequence (P08684 whole entry): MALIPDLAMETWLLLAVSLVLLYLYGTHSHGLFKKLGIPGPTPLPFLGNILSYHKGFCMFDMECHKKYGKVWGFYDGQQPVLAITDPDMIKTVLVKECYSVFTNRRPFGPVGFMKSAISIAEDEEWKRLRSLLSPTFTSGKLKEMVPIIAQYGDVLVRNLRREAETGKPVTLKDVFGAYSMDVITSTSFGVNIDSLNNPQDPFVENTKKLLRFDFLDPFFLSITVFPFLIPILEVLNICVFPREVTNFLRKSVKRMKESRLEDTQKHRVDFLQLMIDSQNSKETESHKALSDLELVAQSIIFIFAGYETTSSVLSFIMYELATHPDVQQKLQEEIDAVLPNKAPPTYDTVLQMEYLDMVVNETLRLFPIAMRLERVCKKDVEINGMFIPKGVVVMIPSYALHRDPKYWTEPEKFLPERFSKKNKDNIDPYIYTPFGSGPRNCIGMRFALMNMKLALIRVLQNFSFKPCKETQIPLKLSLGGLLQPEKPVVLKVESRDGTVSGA

Structure (SMILES) | pIC50 [1] | pIC50 [2] | ER-α transactivation, agonist mode (in words) [3] | Inhibition of estradiol-induced ER-α activity, antagonist mode (in words) [3] | ER-β transactivation, agonist mode (in words) [4] | Inhibition of estradiol-induced ER-β activity, antagonist mode (in words) [4] | GR-mediated transactivation, agonist mode (in words) [5] | Inhibition of dexamethasone-induced GR-mediated transactivation, antagonist mode (in words) [5] | MR-mediated transactivation, agonist mode (in words) [6] | Inhibition of aldosterone-induced MR-mediated transactivation, antagonist mode (in words) [6] | Inhibition of CYP2C19 activity (in words) [2]
C[C@](O)(COc1ccc(C#N)cc1)C(=O)Nc1ccc(C#N)c(Cl)c1 [S-(I), (S)—N-(3-chloro-4-cyanophenyl)-3-(4-cyanophenoxy)-2-hydroxy-2-methylpropanamide] | < 4.70 | < 4.70 | failed to activate | failed to alter | failed to activate | failed to alter | failed to activate | failed to alter | failed to activate | failed to alter | 
C[C@](O)(COc1ccc(F)cc1)C(=O)Nc1ccc(C#N)c(C(F)(F)F)c1 [S-(III)] | < 4.70 | 7.00 | failed to activate | failed to alter | failed to activate | failed to alter | did not induce | not inhibited | did not induce | not inhibited | moderate inhibition
C[C@](O)(COc1ccc(Cl)cc1)C(=O)Nc1ccc(C#N)c(C(F)(F)F)c1 [S-(II)] | < 4.70 | 7.00 | failed to activate | failed to alter | failed to activate | failed to alter | did not induce | not inhibited | did not induce | not inhibited | moderate inhibition
